{"source": "patent US20080261973A1", "about": "“Sulphonamidoaniline Derivatives Being Janus Kinase Inhibitors” (Novartis AG, priority 2005, published 2008)", "data": [{"units": {"melting point": "°C"}, "values": [{"compound": "CS(=O)(=O)Nc1cccc(Nc2nc(NC3CCC3)c3nc[nH]c3n2)c1", "note": "[Example 1, N-[3-(6-Cyclobutylamino-9H-purin-2-ylamino)-phenyl]-methanesulfonamide]", "melting point": "142 to 146"}, {"compound": "CC(C)(CO)Nc1nc(Nc2cccc(NS(C)(=O)=O)c2)nc2[nH]cnc12", "note": "[Example 16, N-{3-[6-(2-Hydroxy-1,1-dimethyl-ethylamino)-9H-purin-2-ylamino]-phenyl}-methanesulfonamide]", "melting point": "215 to 218"}, {"compound": "CS(=O)(=O)Nc1cccc(Nc2nc(NCCN3CCOCC3)c3nc[nH]c3n2)c1", "note": "[Example 22, N-{3-[6-(2-Morpholin-4-yl-ethylamino)-9H-purin-2-ylamino]-phenyl}-methanesulfonamide]", "melting point": "233 to 237"}, {"compound": "CN(CCC#N)c1nc(Nc2cccc(NS(C)(=O)=O)c2)nc2[nH]cnc12", "note": "[Example 8, N-(3-{6-[(2-Cyano-ethyl)-methyl-amino]-9H-purin-2-ylamino}-phenyl)-methanesulfonamide]", "melting point": "218 to 222"}, {"compound": "C[C@H](Nc1nc(Nc2cccc(NS(C)(=O)=O)c2)nc2[nH]cnc12)C(C)(C)C", "note": "[Example 38, N-{3-[6-((S)-1,2,2-Trimethyl-propylamino)-9H-purin-2-ylamino]-phenyl}-methanesulfonamide]", "melting point": "150 to 153"}, {"compound": "COCCOc1nc(Nc2cccc(NS(C)(=O)=O)c2)nc2[nH]cnc12", "note": "[Example 32, N-{3-[6-(2-Methoxy-ethoxy)-9H-purin-2-ylamino]-phenyl}-methanesulfonamide]", "melting point": "201 to 204"}, {"compound": "CC(C)[C@@H](CO)Nc1nc(Nc2cccc(NS(C)(=O)=O)c2)nc2[nH]ccc12", "note": "[Example 84, N-{3-[4-((S)-1-Hydroxymethyl-2-methyl-propylamino)-7H-pyrrolo[2,3-d]pyrimidin-2-ylamino]-phenyl}-methanesulfonamide]", "melting point": "106 to 109"}, {"compound": "CS(=O)(=O)Nc1cccc(Nc2nc(Oc3ccc(F)cc3)c3nc[nH]c3n2)c1", "note": "[Example 46, N-{3-[6-(4-Fluoro-phenoxy)-9H-purin-2-ylamino]-phenyl}-methanesulfonamide]", "melting point": "136 to 139"}, {"compound": "CS(=O)(=O)Nc1ccc(Nc2nc(NC3CCCC3)c3nc[nH]c3n2)cc1", "note": "[Example 44, N-[4-(6-Cyclopentylamino-9H-purin-2-ylamino)-phenyl]-methanesulfonamide]", "melting point": "261 to 265"}, {"compound": "CN1CCN(c2nc(Nc3cccc(NS(C)(=O)=O)c3)nc3[nH]cnc23)CC1", "note": "[Example 18, N-{3-[6-(4-Methyl-piperazin-1-yl)-9H-purin-2-ylamino]-phenyl}-methanesulfonamide]", "melting point": "148 to 151"}, {"compound": "CS(=O)(=O)Nc1cccc(Nc2nc(NCc3ccccc3CO)c3nc[nH]c3n2)c1", "note": "[Example 93, N-{3-[6-(2-Hydroxymethyl-benzylamino)-9H-purin-2-ylamino]-phenyl}-methanesulfonamide]", "melting point": "145 to 148"}, {"compound": "CS(=O)(=O)Nc1cccc(Nc2nc(NCc3cccc(O)c3)c3nc[nH]c3n2)c1", "note": "[Example 73, N-{3-[6-(3-Hydroxy-benzylamino)-9H-purin-2-ylamino]-phenyl}-methanesulfonamide]", "melting point": "221 to 225"}, {"compound": "CS(=O)(=O)Nc1cccc(Nc2nc(N3CCCC3)c3nc[nH]c3n2)c1", "note": "[Example 14, N-[3-(6-Pyrrolidin-1-yl-9H-purin-2-ylamino)-phenyl]-methanesulfonamide]", "melting point": "164 to 168"}, {"compound": "CC(C)(C)CNc1nc(Nc2cccc(NS(C)(=O)=O)c2)nc2[nH]cnc12", "note": "[Example 50, N-{3-[6-(2,2-Dimethyl-propylamino)-9H-purin-2-ylamino]-phenyl}-methanesulfonamide]", "melting point": "270 to 273"}, {"compound": "C[C@@H](Nc1nc(Nc2cccc(NS(C)(=O)=O)c2)nc2[nH]cnc12)C(C)(C)C", "note": "[Example 39, N-{3-[6-((R)-1,2,2-Trimethyl-propylamino)-9H-purin-2-ylamino]-phenyl}-methanesulfonamide]", "melting point": "169 to 171"}]}]}
